According to a melting point compilation (Tetko et al.; mined from patent text by program, amines drawn as free bases though some values may be those of a salt):

Row | SMILES | melting point [°C]
1 | CSc1cnc2cc(-c3ccccc3Cl)sc2c1O | 270 to 273
2 | Cc1onc(-c2ccccc2)c1C(=O)NC1C(=O)N2C1SCC(C)(Cl)C2C(=O)O (stereo not drawn) | 210
3 | CSc1ncc2cc(-c3c(Cl)cccc3Cl)c(N)nc2n1 | 250 to 253
4 | CC(C)Oc1cc(COc2ccc(C(F)(F)F)cc2)cc(COc2cc(CCC(=O)O)n(-c3ccccc3)n2)c1 | 55 to 58
5 | N#Cc1cc(N)c(N)c(C#N)c1 | 240 to 244
6 | COc1cccc2c1OC(CO)C2=O (stereo not drawn) | 103 to 104
7 | COc1ccccc1C1SCCCS1 | 127 to 128
8 | COc1cc(OC)c(S(=O)(=O)Cl)cc1-c1nc2nccnc2[nH]1 | 294 to 296
9 | Cn1nc(O)c(C(F)F)c1Cl | 122 to 123
10 | Cc1cc(SC(C)C)c(NC(=O)CSc2nc3ccccc3o2)c(SC(C)C)n1 | 151 to 152
11 | O=C(O)C(O)=CC(=O)c1ccc(Cl)c(Cl)c1 | 180 to 181
12 | C/C(=C(\C#N)C(N)=S)N1CCCCCCC1 | 149 to 150
13 | COCOc1c(OC)cc(C(=O)C(=O)O)c2cccc(Cc3ccccc3)c12 | 75 to 79
14 | Cc1c(NC(=O)c2cccc(OCCN)c2)c2ccccn2c1C(=O)c1ccc(NC(=O)C(F)(F)F)c(C(=O)OCc2ccccc2)c1 | 219
15 | CC(N)CN(C)C(=O)c1ccccc1 (stereo not drawn) | 102
16 | CCCCCCCC[C@H]1CC[C@H](C(=O)O)CC1 | 36 to 37
17 | O=C1CSC=C(c2ccccc2)N1 | 150 to 155
18 | CC12CC(=O)C3C(CCC4CC(=O)CCC43C)C1CCC2C(=O)CCl (stereo not drawn) | 168 to 172
19 | C=C(CN(C)C)C(O)c1ncc2c(c1O)COC2C1CCCCC1 (stereo not drawn) | 180 to 184
20 | COC(=O)CCC(NC(=O)Nc1cccc(C)c1)C(=O)O (racemic) | 127
21 | NC(=O)OCC1COC(C(F)(F)Cl)(C(F)(F)Cl)O1 (stereo not drawn) | 56 to 57

Row | SMILES | melting point [°C]
22 | O=Cc1c(O)cccc1OCCCCC(=O)O | 94
23 | O=C(O)CP(=O)(O)C[C@H](Cc1ccccc1)NC(=O)c1ccccc1 | 105 to 107
24 | C/C(=C\c1cc(F)cc(F)c1)C(=O)O | 148
25 | CCOC(=O)c1c(C)ccc(Cc2c[nH]cn2)c1O | 101 to 103
26 | CCCc1nn(C)c2c(=O)[nH]cnc12 | 199 to 200
27 | Cc1nnc2n1-c1ccc(C#Cc3cccs3)cc1C(c1ccccc1Cl)=NC2 | 160 to 163
28 | Cc1cc(-c2ccc(C(F)(F)F)cc2)cc(-c2ccnc(-c3ccc(S(N)(=O)=O)s3)n2)n1 | > 250
29 | COc1ccc(C(=O)c2ccc(OCCc3nc(-c4ccccc4)oc3C)cc2)c(OC(C)(C)C(=O)O)c1 | 81 to 82
30 | C#CCOC(=O)C(C#N)=C(SC)SC | 77 to 79
31 | CC1=CC(N)(C(=O)NCCC(C)n2ccnc2)CC=C1 (stereo not drawn) | 128 to 130
32 | C=CS(=O)(=O)CC(COCCCCCCCCCCCCCCCCCC)OC (stereo not drawn) | 47 to 49
33 | CC(=O)Nc1ccc(OS(N)(=O)=O)cc1 | 180 to 181
34 | Nc1cnc2c(F)c(Cl)c(F)cc2c1 | 270
35 | OC(CSC1CCCCC1)CSC1CCCCC1 | 85.5 to 88.5
36 | CCCCC(CC)CN(CCC)c1ccc(C2=C(C#N)C(=C(C#N)C#N)NC2=O)cc1 (stereo not drawn) | 189
37 | CC(=O)OC1CCC2(C)C3CCC4(C)C(C(C)=O)CCC4C3CC(Cl)C2(Cl)C1 (stereo not drawn) | 187
38 | COC(=O)c1ccc(N)cc1S(=O)(=O)NC(C)(C)C | 198 to 199
39 | CC(C)(C)CC(C)(C)c1cc(N=Nc2cc(C(=O)O)ccc2Cl)c(O)c(C(C)(C)c2ccccc2)c1 | 218 to 220
40 | Cc1ccc(C(=O)O)c(Nc2cc(C)nn2C)c1 | 188 to 192
41 | C=CCc1c(O)cc(O)c(C(C)=O)c1O | 158 to 159

Other lines, results leading:

Row | melting point [°C] | SMILES
42 | 72 to 74 | C[C@@H](CCOC(N)=O)CN1CCC(c2noc3cc(F)ccc23)CC1
43 | 79 to 82 | O=[N+]([O-])c1nccn1CCI
44 | 145 to 150 | O=C(CCCN1CCN2c3ccccc3NC(=O)C2C1)c1ccc(F)cc1 (stereo not drawn)
45 | 231 to 233 | CNC(=O)c1cncc(NC(=O)N2CCC3(CCc4ccc(F)cc4O3)CC2)c1
46 | 68 to 72 | Cc1cccc(COc2cccc(COc3ccc4ccccc4n3)c2)c1C(=O)O
47 | 101 to 103 | N#CCCSC1C2=C(CCCC2)C(=O)N1c1ccc(Cl)cc1F (stereo not drawn)
48 | 136 to 137 | CCOc1ccc(OCc2cccc(OCc3nc(-c4ccccc4)oc3C)c2)cc1CCC(=O)O
49 | 72 to 74 | CCOCCCOc1ccc2c(c1)C(N(CC)S(C)(=O)=O)CC(C)(C)O2 (stereo not drawn)
50 | 188 to 189 | C=CCn1c(=O)c2cccnc2n(-c2cccc([N+](=O)[O-])c2)c1=O
51 | 92 to 92.5 | CC1=CN2CCS(=O)(=O)N=C2C(c2ccc(Oc3ccccc3)cc2)=N1
52 | 137 to 140 | CC(C)[C@](O)(CCc1ccc(O)cc1)CC(=O)O
53 | 122 to 125 | CC(C)C1C(=O)Nc2ccc(OCC3CO3)cc21 (stereo not drawn)
54 | 112 to 113 | COC(=O)c1ccc2ncn(-c3ccc(OC)cc3)c2c1
55 | 144 to 147 | Nc1ccc(Sc2cnc3cc(Cl)ccc3n2)cc1
56 | 140 to 145 | COc1ccc(-c2ccc3[nH]c4c(c3c2)CCN(C(=O)c2ccccc2)CC4)cc1
57 | 145 to 147 | COc1ccc(-c2cc3ccccc3o2)cc1
58 | 181 to 183 | NC(=O)c1ccc(C2CCCc3cncn32)cc1 (stereo not drawn)
59 | 218 to 222 | CC(=O)Nc1ccccc1CSc1nc2ccccc2[nH]1
60 | 286 to 288 | CCCCOc1cc(C(=O)O)cc(N)c1C(=O)c1ccc(Cl)cc1
61 | 178 to 180 | Cn1nc(N)nc1NCCCOc1cccc2c(N3CCOCC3)nccc12
62 | 83 to 84 | COc1ccc(C(O)c2ccccc2OC)cn1 (stereo not drawn)

Row | melting point [°C] | SMILES
63 | 274 to 276 | CN1CCN(c2ccc(Nc3ncc4c(n3)S/C(=C/c3ccc(C#N)cc3)C(=O)N4)cc2)CC1
64 | 258 to 262 | CCOP(=O)(OCC)c1cc2cc([N+](=O)[O-])c(Cl)cc2[nH]c1=O
65 | 163 | CCc1nc2c(Cl)nc(C)cc2n1-c1ccc(CCNC(=O)NS(=O)(=O)c2ccc(C)cc2)cc1
66 | 212 to 213 | COc1cc2ncnc(Nc3ccc(F)c(Cl)c3)c2cc1OCC1(C)COCOC1
67 | 58 to 60 | CCOC(=O)C1CN(c2ccc(OC)cc2)CC1=O (stereo not drawn)
68 | 33 to 34 | CCc1occc(=O)c1OCc1ccccc1
69 | 161 to 162 | COC(=O)C1c2ccccc2C(=O)N(CC(F)(F)F)C1c1cn[nH]c1 (stereo not drawn)
70 | 162 to 163 | COc1ccc(C#N)cc1/C=C/C(=O)N[C@H](CO)CN1CCC(C(=O)c2ccc(Cl)cc2)CC1
71 | 190 to 191 | COc1ccc(C(=O)Nc2c(Cl)cncc2Cl)cc1OC1COCC1OCc1ccccc1 (stereo not drawn)
72 | 139 | Cc1ccc(-c2ccccc2)cc1Cn1c(C)nn(C)c1=O
73 | 225 to 227 | O=c1c2cc(Cl)ccc2nc2n1CCC2=Cc1ccccc1
74 | 147 | CS(=O)(=O)c1ccc(C(=O)c2cc(-c3cccnc3)c(N3CCOCC3)s2)cc1
75 | 153 to 155 | COC(=O)C(CO)NC(=O)c1cc2cc(Cl)ccc2[nH]1 (stereo not drawn)
76 | 140 to 142 | O=C(O)COc1ccc(SCc2ccc(OCc3ccc(OC(F)(F)F)cc3)cc2)c2c1CCC2
77 | 129 to 130 | CC1(CN2CCC(OCc3ccc(Cl)cc3)CC2)Cn2cc([N+](=O)[O-])nc2O1 (stereo not drawn)
78 | 156 to 158 | Cc1ccc(CN2CCC3(CC2)CSC2=C(O3)c3ccccc3C(=O)C2=O)cc1
79 | 178 to 179 | COc1ccc(CNC(=O)c2ccc3n2Cc2ccccc2N(C(=O)c2ccc(-c4ccccc4C)c(OC)c2)C3)cc1
80 | 161 | CCOC(=O)C1=C(COC(C)=O)Nc2nc(N3CCOCC3)nc(N3CCOCC3)c2C1c1cccc(Cl)c1Cl (stereo not drawn)
81 | 209 to 211 | COc1cc(-c2ccccc2Cl)c(Cl)cc1C(=O)N1Cc2cccn2Cc2ccccc21
82 | 106 to 107 | CCOC(=O)c1ccc(N(C)Cc2ccc(Cl)cc2)cc1
83 | 142 to 144 | COc1cccc([C@H]2O[C@H](CC(=O)Nc3ccc(CC(=O)O)cc3)C(=O)N(CC(C)(C)CO)c3ccc(Cl)cc32)c1OC

Row | melting point [°C] | SMILES
84 | 152 | Oc1ccccc1CCCC1CCNCC1
85 | 125 | Cc1ccc(S(=O)(=O)n2ccc3c(Cl)c(F)cnc32)cc1
86 | 213 to 215 | Cc1cc(NC2=NCCN2)n(-c2ccc(F)cc2)n1
87 | 235 to 236 | O=C1Nc2ccccc2C12COc1cc3c(cc12)OCCCO3 (stereo not drawn)
88 | 270 to 272 | COc1ccc(Nc2nc3ccccc3c(=O)[nH]2)c(C)c1
89 | 75 to 76 | C[C@H](C(=O)OCc1ccccc1)n1ccn(-c2ccc(OCC(F)(F)C(F)F)cc2)c1=O
90 | 139 to 141 | Cc1c(CN2CCC(c3c(Cl)cccc3Cl)CC2)[nH]c2ccccc12
91 | 259 to 261 | COC(=O)c1ccc2ncc(C(=S)NCc3ccc(Cl)cc3)c(O)c2c1
92 | 170 to 172 | O=C1c2ccccc2C(=O)N1CCCCn1cnc(-c2ccc([N+](=O)[O-])cc2)c1
93 | 85 to 86 | OCCCc1ccc2ccccc2c1O
94 | 199 to 201 | CCCNC(=O)Nc1ccc(N(C)C)cc1C(=O)NCC1CCN(C(c2ccccc2)c2ccccc2)CC1
95 | 140 | C[C@]1(CN2CCN(C(=O)OCc3ccc(OC(F)(F)F)cc3)CC2)Cn2cc([N+](=O)[O-])nc2O1
96 | 207 to 209 | CCOC(=O)c1ccc(COCc2csc3nc(C(=O)NCc4cccc(SC)c4)[nH]c(=O)c23)cc1
97 | 227 to 228 | CCOC(=O)C1=CC2(CCC1S(=O)(=O)Nc1ccc(F)cc1Cl)OC1COCC1O2 (stereo not drawn)
98 | 154 | CCCNC(=O)c1nnc(NCc2cc(Br)ccc2OCc2ccccc2)s1
99 | 89 | CC1CCN(c2ccc(N)cc2C(=O)c2ccc(Cl)cc2)CC1
100 | 189 to 191 | Cc1ccc2[nH]c(=O)n(C(C)(C)C(=O)OCC(=O)c3ccccc3)c(=O)c2c1
101 | 139 to 141 | COc1cc2c(cc1OC)Sc1ccc(Cl)cc1C(Cl)C2 (stereo not drawn)
102 | 110 to 112 | CCOC(=O)c1nn(-c2ccccc2)c2c1Cc1ccccc1-2
103 | 276 to 277 | COc1ccc(N=Nc2ccc(O)c(C(=O)Nc3ccc4[nH]ncc4c3)c2)cc1
